Assay results taken from article PMC9098913, “In vitro reconstitution of Escherichia coli divisome activation” (Nature Communications, 2022).

B1: FtsA R286W-His6: FtsA R286W (1-405) with amphipathic helix replaced by C-terminal His-tag (protein)
chain: MIKATDRKLVVGLEIGTAKVAALVGEVLPDGMVNIIGVGSCPSRGMDKGGVNDLESVVKCVQRAIDQAELMADCQISSVYLALSGKHISCQNEIGMVPISEEEVTQEDVENVVHTAKSVRVRDEHRVLHVIPQEYAIDYQEGIKNPVGLSGVRMQAKVHLITCHNDMAKNIVKAVERCGLKVDQLIFAGLASSYSVLTEDERELGVCVVDIGGGTMDIAVYTGGALRHTKVIPYAGNVVTSDIAYAFGTPPSDAEAIKVRHGCALGSIVGKDESVEVPSVGGRPPWSLQRQTLAEVIEPRYTELLNLVNEEILQLQEKLRQQGVKHHLAAGIVLTGGAAQIEGLAACAQRVFHTQVRIGAPLNITGLTDYAQEPYYSTAVGLLHYGKESHLNGEAEVEKRVTASV
modifications: Cy3 or Cy5 at the N-terminus in the labelled form (sortagging as for native FtsA); left off: TwinStrep-SUMO, N-terminal, cleaved | 5xGlycine tag, N-terminal, kept | His6, C-terminal, kept

Legend:
[1] = Membrane off-binding rate (koff) of FtsA from FRAP; set-up: Off binding rate koff: unit not given here; conditions: Fig. S4i
Source text: We could also use the data from these bleaching experiments to quantify the membrane-binding kinetics and diffusion of membrane-bound proteins by analysing the change of the fluorescence profile during recovery.
Equimolar concentrations of Cy3- and Cy5-labelled FtsA, supplemented with 20% unlabelled FtsA were used to study FRET and FRAP. Five pre-bleach frames were acquired, followed by acceptor photobleaching of a rectangular ROI with 40% 641 nm laser power and a dwell size of 1 µs/pixel, 75% overlapping lines. The recovery of the signal or the increase in donor intensity were measured with either two frames or one frame per second.
Bleaching the acceptor dye leads to an increase in the donor intensity, which can be used to quantify the Foerster Resonance energy transfer (FRET)[48]. FRET efficiency was quantified with E%=Ipost/Ipost+Ipre⋅100 , where Ipost is the intensity of the […] and Ipre is the […]. […] To extract the contribution of both processes, we adjusted a routine recently published by Gerganova et al.[33]. In short, the code provides the contribution of both modes of recovery by analysing the shape of the fluorescence recovery profile. […] Contribution of diffusion leads to a change of the slope of the outer borders of the bleached region (S4h right). Thus, by measuring the change of the slope of the border recovery, diffusion and simple on/off binding can be distinguished. We developed “FRAPdiff”, a graphical user interface, which uses the original fit routine by David Rutkowski. It can be used directly on.tiff movies with annotated bleach regions as ImageJ ROIs. In addition, we added optional bleach correction, user selectable projection axis (x or y), and optional mirroring of the recovery profiles, if bleaching was not symmetric. The original fit routine for estimating the recovery and diffusion dynamics can be found at https://github.com/davidmrutkowski/1DReflectingDiffusion. FRAPdiff is available at 10.5281/zenodo.6400639[49] under the GPLv3 open-source license.

[2] = test system: FtsZ; conditions: […] Tris-NTA; p-value 3.86 × 10^−4; three repeats
Procedure: (§1) Co-treadmilling of FtsA with FtsZ relies on the dynamic exchange of FtsA on the membrane. […] To investigate the respective contributions of membrane binding kinetics and FtsA self-interaction on the colocalization dynamics with FtsZ, we wanted to create variants of the two FtsA proteins that are permanently attached to the membrane. […] Accordingly, in these experiments the proteins only differ in their tendency to form oligomers.
(§2) To study colocalization of His-tagged variants of FtsA, 0.5–1 µM of Cy5 labelled His-tagged FtsAs were added to the chamber, incubated for 20 min and washed 6x with reaction buffer. […] To control the density of membrane-bound FtsA, SUVs without and with Tris-NTA lipids were mixed to obtain the respective Tris-NTA concentrations. To perform FRET/FRAP experiments, equimolar concentrations of Cy3 and Cy5 labelled His-tagged FtsAs (total 0.5–1 µM) or His-SUMO-Cys were added to a chamber and treated as above. […] FRAP experiments were performed as described before.
Time-lapse videos were first intensity-corrected and contrast-enhanced to avoid bleaching effects and simplify subsequent analysis. To remove contributions of X–Y drift, the videos were processed with the Linear Stack Alignment with SIFT plugin. Proper alignment was checked with the 3TP align plugin (J. A. Parker; Beth Israel Deaconess Medical Center, Boston). Subsequently, regions of interest (ROIs) in the center of the stacks were chosen for colocalization analysis. The Pearson’s correlation coefficient (PCC) was quantified with the Image CorrelationJ 1o plugin. To extract information about the relative ratio of FtsZ/FtsA molecules (slope of linear regression), we also used the Image CorrelationJ 1o plugin. As an output, the plugin provides a scatterplot of FtsZ vs FtsA intensities, to which we fitted a linear slope y=k⋅x+d , where k is the slope and d the offset. The slope was used as an estimate for the ratio of FtsA molecules below FtsZ filaments.

[3] = test system: FtsZ; conditions: for PCCdiff His-tagged FtsA/FtsZ: […] Tris-NTA, p-value […] 10^−4 (vs WT-His6), 7.78 × 10^−5 (vs R286W), three repeats
Procedure: as §1, §2
Treadmilling dynamics, were quantified using an automated image analysis protocol previously developed by our group. To visualize colocalization of the co-treadmilling FtsZ & FtsA filaments, we used dual-colour videos obtained at an acquisition rate of one frame per 2 s. The two channels were aligned using FIJI’s 3TP align plugin. Both channels were then subjected to the image subtraction protocol and colocalization was measured as described above.

[4] = 0.10 % Tris-NTA lipids, + FtsZ, summary value
[5] = 0.10 % Tris-NTA lipids, without FtsZ, summary value
[6] = 0.40 % Tris-NTA lipids, + FtsZ, summary value
[7] = 0.40 % Tris-NTA lipids, without FtsZ, summary value
[8] = 0.60 % Tris-NTA lipids, + FtsZ, summary value
[9] = 0.60 % Tris-NTA lipids, without FtsZ, summary value
[10] = […] Tris-NTA lipids, + FtsZ, summary value
[11] = […] Tris-NTA lipids, without FtsZ, summary value

Molecule | Off binding rate koff [1, 4] | Off binding rate koff ([1]; 0.10 % Tris-NTA lipids, replicate 1) | Off binding rate koff ([1]; 0.10 % Tris-NTA lipids, replicate 2) | Off binding rate koff [1, 5] | Off binding rate koff [1, 6] | Off binding rate koff [1, 7] | Off binding rate koff [1, 8] | Off binding rate koff [1, 9] | Off binding rate koff [1, 10] | Off binding rate koff ([1]; […] Tris-NTA lipids, replicate 1) | Off binding rate koff ([1]; […] Tris-NTA lipids, replicate 2) | Off binding rate koff [1, 11] | PCC His-tagged FtsA/FtsZ [2] | PCCdiff His-tagged FtsA/FtsZ [3] | co-treadmilling with FtsZ, reduction compared to the reversibly membrane-binding protein ([3]; […] Tris-NTA R286W-His6 vs 0.8 µM R286W)
FtsA-His6: FtsA WT (1-405) with amphipathic helix replaced by C-terminal His-tag | 0.0359 | 0.020 | 0.006 | 0.0131 | 0.0068 | 0.0123 | 0.0048 | 0.0097 | 0.0182 | 0.0017 | 0.018 | 0.0098 | 0.13 ± 0.06 | 0.07 ± 0.04 | 
B1 | 0.0533 |  |  | 0.0639 | 0.0309 | 0.0536 | 0.0489 | 0.0398 | 0.0386 |  |  | 0.0644 | 0.63 ± 0.02 | 0.36 ± 0.02 | about 50%
